Counter-ions that a name gives are not always drawn. Like-named read-outs stand apart in the source and are kept apart here.
Columns and labels:
[1] = Storage at 25° C./93% RH for 1 week, re-analysis by XRPD/HPLC; type: physicochemical; details: 1 week
[2] = Gravimetric vapour sorption (GVS); type: physicochemical
Protocol: Sorption isotherms were obtained using a Hiden IGASorp moisture sorption analyser, controlled by CFRSorp software. The sample temperature was maintained at 25° C. by a Huber re-circulating water bath. The humidity was controlled by mixing streams of dry and wet nitrogen, with a total flow rate of 250 ml/min. The relative humidity (RH) was measured by a calibrated Vaisala RH probe (dynamic range of 0-95% RH), located near the sample. The weight change, (mass relaxation) of the sample as a function of % RH was constantly monitored by the microbalance (accuracy ±0.001 mg). Typically 10-20 mg of sample was placed in a tared mesh stainless steel basket under ambient conditions. The sample was loaded and unloaded at 40% RH and 25° C. (typical room conditions). A moisture sorption isotherm was performed as outlined below (2 scans giving 1 complete cycle). The standard isotherm was performed at 25° C. at 10% RH intervals over a 0-90% RH range.
The software uses a least squares minimisation procedure together with a model of the mass relaxation, to predict an asymptotic value. The measured mass relaxation value must be within 5% of that predicted by the software, before the next % RH value is selected. The minimum equilibration time was set to 1 hour and the maximum to 4 hours. The sample was recovered after completion of the isotherm and re-analysed by XRPD.

[3] = Polymorphism study: maturation (temperature cycling RT to 50° C.) in solvents, XRPD; type: physicochemical
Protocol: One of 21 solvents was added to each vial in a number of aliquots (up to 30 volumes), with shaking. All the samples were then placed under maturation between RT to 50° C. (4 hours at each temperature) for 3 days. After maturation the samples were analysed by XRPD. Clear solutions were cooled to −20° C. (freezer). If no precipitation occurred samples were evaporated at RT.
Samples were placed under maturation between RT-50° C. (4 hours cycle) for 3 days. After maturation the samples were analyzed by XRPD. Clear solutions were then cooled to −20° C. (freezer). If no precipitation occurred, samples were evaporated at RT.
(§1) The corresponding solvents and solvent mixtures were added in portions of (a total of) 5, 10, 20, and 30 volumes at 50° C., with shaking, aiming for clear solutions. After each addition, the vials were allowed to shake for 20 minutes, after which observations were made. Solutions were allowed to evaporate, whereas slurries were set for 8 hour temperature cycling maturation, between RT and 50° C., for 5 days.
The oils obtained by solvent evaporation were used for the maturation screen. Anhydrous solvents (5 volumes; 100 μL) were used in order to minimise the amount of water present. Any solutions were allowed to slowly evaporate, whereas slurries were set for 8 hour temperature cycling maturation, between RT and 50° C. […] These were matured for a further 24 hours before performing XRPD analysis.
The selected solvents and solvent mixtures (5 to 20 volumes) were added with stirring. Any solutions were allowed to slowly evaporate, whereas slurries were set for 8 hour temperature cycling maturation, between RT and 50° C., for 2 days.
Crystals were ground in order to analyse them by XRPD. Suspensions were set for temperature cycling for a total of five days after which time XRPD analysis was carried out.

[4] = Stability of Hydrate Form 2: maturation in water or acetic acid: water 1:3 at constant temperature; type: physicochemical; details: 40 hours
Protocol: Both solids obtained from maturation at 25° C.

[5] = 2-Week comparative stability studies; type: physicochemical; details: 2 weeks; for change in appearance: 5° C. (closed), ambient (closed), ambient (closed-exposed to light), ambient (open), 60° C. (closed), RT/75% RH (open), 40° C./75% RH (open); for change of water content, as determined by KF: all seven storage conditions
Protocol: (closed); (ii) ambient (closed); (iii) ambient (closed-exposed to light); (iv) ambient (open); (v) 60° C. (closed); (vi) RT/75% RH (open); and (vii) 40° C./75% RH (open).

[6] = Solubility of free base hydrate and salts versus pH (Table 24); type: physicochemical
[7] = Dissolution; type: physicochemical
Protocol: The dissolution rate for the hydrate was about 80% in 15 min at pH 1.2 and about 20% in 60 min at pH 2.5. The dissolution rate of the bis-sulfuric acid salt was 100% in 15 min at both pH 1.2 and pH 2.5.

[8] = Solubility assessment using FB Hydrate Form 2; type: physicochemical
Protocol: The best solvent systems (clear solutions) were methanol:anisole 1:1 and DMSO (10 volumes, at RT), dioxane (10 volumes, 50° C.), chloroform (20 volumes, RT). […]

[9] = Thermodynamic aqueous solubility; type: physicochemical; details: salts scaled-up at 0.5 gram
[10] = Density and flowability (Hausner ratio, Carr index); type: physicochemical
Text: The Hausner ratio and the Carr index are correlated to the flowability of a powder or granular material. […] The flowability of both salts are acceptable for manufacturing.

[11] = PK properties in non-clinical animal species (all species); type: in vivo, CD-1 mouse, Wistar rat, Cyno monkey, Beagle dog; details: animal pharmacology models and non-clinical toxicology species
Protocol: For example, Compound 1 bis-hydrogen sulfate monohydrate was evaluated in CD-1 mouse, Wistar rat, Cyno monkey, and Beagle dog. Cross species allometric scaling of CL (drug clearance) and Vss (volume at steady state) predicts low CL, high Vss and long T112 for Compound 1 in humans.

[12] = Solubility of bis-sulfuric acid salt Form 1 in solvents at 50° C.; type: physicochemical
Protocol: as §1, with “Bis-Sulfuric acid salt Form 1 of Compound 1 (ca. 35 mg) was weighed into vials. The” for “The”

[13] = Storage at 40° C./75% RH (elevated humidity) for 1 week, re-analysis by XRPD/HPLC; details: salt screen solids, 1 week, XRPD pattern or observation
Protocol: The crystalline solids were filtered, dried at ambient conditions, and stored at 40° C./75% RH for 1 week and analyzed by ^1H NMR/IC.
Samples from the screen using amorphous free base Compound 1 were analysed by ^1H-NMR and DSC, and re-analysis by XRPD was also carried out after drying at 50° C./vacuum and storage at 40° C./75% RH (the same sample was dried and stored at elevated humidity).

## COc1cc(-c2cccc3cc([C@H](C)Nc4nc(N)ncc4C#N)n(-c4ccccc4)c(=O)c23)ccn1 [Form 2 of the free base of Compound 1]
[1]
  stability on storage at 25° C./93% RH: stable
[1]; listed as Free base Form 2
  stability on storage at 25° C./93% RH: mainly the same pattern with a few differences
[2]
  GVS: changes in the XRPD after the experiment: very slight changes
[2]; between 40-50% RH
  GVS: moisture uptake on loading: 1 % w/w
[2]; between 90-10% on desorption
  GVS: moisture content on desorption: 5.7 % w/w
[3]; three days, listed as hydrate Form 2 of free base Compound 1
  XRPD form after maturation in acetic acid: water 1:1: did not show any changes in form
[4]; acetic acid: water 1:3, 25° C.
  XRPD form after maturation: unchanged Form 2
[4]; acetic acid: water 1:3, 90° C.
  XRPD form after maturation: some evidence of the acetic acid solvate Form 6 mixed with a majority of Form 2
[4]; pure water, 25° C.
  XRPD form after maturation: unchanged Form 2
[4]; pure water, 90° C.
  XRPD form after maturation: Form 2
[5]
  change in appearance: No change in appearance
  change of water content, as determined by KF: No significant change
[6]; 0.1N HCl, 37° C., at saturation
  Solubility: 16000 µg/mL
[6]; Simulated Gastric Fluid
  Solubility: 8130 µg/mL
[6]; Simulated Intestinal Fluid
  Solubility: 2 µg/mL
[6]; citrate buffer, pH 2.5
  Solubility: 0.2-0.3 mg/mL ^
[7]; in 15 min at pH 1.2, listed as hydrate
  dissolution rate: about 80%
[7]; in 60 min at pH 2.5
  dissolution rate: about 20%
[8]; 2-methyltetrahydrofuran
  volumes of solvent giving a clear solution: 50 volumes
[8]; DCM
  volumes of solvent giving a clear solution: 100 volumes
[8]; DCM:methanol 1:1
  volumes of solvent giving a clear solution: 100 volumes
[8]; DME
  volumes of solvent giving a clear solution: 100 volumes
[8]; DMSO, at RT
  volumes of solvent giving a clear solution: 10 volumes
[8]; THF
  volumes of solvent giving a clear solution: 100 volumes
[8]; THF:5% water
  volumes of solvent giving a clear solution: 50 volumes
[8]; acetonitrile/5% water
  volumes of solvent giving a clear solution: 100 volumes
[8]; chloroform, RT
  volumes of solvent giving a clear solution: 20 volumes
[8]; dioxane, 50° C.
  volumes of solvent giving a clear solution: 10 volumes
[8]; ethanol:anisole
  volumes of solvent giving a clear solution: 50 volumes
[8]; methanol
  volumes of solvent giving a clear solution: 100 volumes
[8]; methanol:anisole 1:1, at RT
  volumes of solvent giving a clear solution: 10 volumes

## COc1cc(-c2cccc3cc([C@H](C)Nc4nc(N)ncc4C#N)n(-c4ccccc4)c(=O)c23)ccn1 [bis-sulfuric acid monohydrate salt of (S)-2-amino-4-((1-(8-(2-methoxypyridin-4-yl)-1-oxo-2-phenyl-1,2-dihydroisoquinolin-3-yl)ethyl)amino)pyrimidine-5-carbonitrile]
[2]; hygroscopicity in words, 25° C.
  GVS Single cycle: Slightly hygroscopic
[9]
  Thermodynamic aqueous solubility: > 51 mg/mL
[3]; 30 volumes of solvent, RT to 50° C., five days, all solvents other than acetic acid/water, methanol, ethanol/water
  changes on maturation of slurries: did not show any changes
[5]
  change in appearance: No change in appearance
  change of water content, as determined by KF: No significant change
[6]; Simulated Gastric Fluid, thermodynamic from solid, read-out: Solubility
  Solubility: > 17000 µg/mL
[6]; Simulated Intestinal Fluid, fassgf or other biorelevant, thermodynamic from solid, read-out: Solubility
  Solubility: 40 µg/mL
[6]; aqueous buffer, thermodynamic from solid, citrate buffer, pH 2.5, at 37° C., read-out: Solubility
  Solubility: > 12000 µg/mL
[6]; aqueous buffer, thermodynamic from solid, citrate buffer, pH 2.5, at RT, read-out: Solubility
  Solubility: > 12000 µg/mL
[6]; aqueous buffer, thermodynamic from solid, pH 1.65, 37° C., read-out: Solubility
  Solubility: > 12000 µg/mL
[6]; aqueous buffer, thermodynamic from solid, pH 1.65, RT, read-out: Solubility
  Solubility: > 12000 µg/mL
[6]; aqueous buffer, thermodynamic from solid, pH 1.9, 37° C., read-out: Solubility
  Solubility: > 12000 µg/mL
[6]; aqueous buffer, thermodynamic from solid, pH 1.9, RT, read-out: Solubility
  Solubility: > 12000 µg/mL
[6]; aqueous buffer, thermodynamic from solid, pH 2.5, 37° C., read-out: Solubility
  Solubility: > 12000 µg/mL
[6]; aqueous buffer, thermodynamic from solid, pH 2.5, RT, read-out: Solubility
  Solubility: > 12000 µg/mL
[6]; aqueous buffer, thermodynamic from solid, pH 3.0, 37° C., read-out: Solubility
  Solubility: 3450 µg/mL
[6]; aqueous buffer, thermodynamic from solid, pH 3.0, RT, read-out: Solubility
  Solubility: 1580 µg/mL
[6]; aqueous buffer, thermodynamic from solid, pH 3.8, 37° C., read-out: Solubility
  Solubility: 280 µg/mL
[6]; aqueous buffer, thermodynamic from solid, pH 3.8, RT, read-out: Solubility
  Solubility: 290 µg/mL
[6]; simulated gastric fluid, thermodynamic from solid, 0.1N HCl, 37° C., at saturation, read-out: Solubility
  Solubility: > 90000 µg/mL
[6]; thermodynamic from solid, Water (pH 1.16), read-out: Solubility
  Solubility: > 60000 µg/mL
[6]; up to pH 3
  solubility compared to the hydrate: significantly higher solubility
[7]; in 15 min at pH 1.2, listed as bis-sulfuric acid salt
  dissolution rate: 100%
[7]; in 15 min at pH 2.5
  dissolution rate: 100%
[10]
  flowability compared to the hydrate: improved flowability
[11]
  oral pharmacokinetics: good oral pharmacokinetics
[12]; acetic acid/water 1:3 at 50° C.
  volumes of solvent giving a clear solution: 5 volumes
[12]; methanol at 50° C.
  volumes of solvent giving a clear solution: 5 volumes
[13]
  Storage 40° C./75% RH: salt Pattern 1

— patent publication US20160024051A1, “SALTS AND SOLID FORMS OF ISOQUINOLINONES AND COMPOSITION COMPRISING AND METHODS OF USING THE SAME” (INFINITY PHARMACEUTICALS, INC., priority 2013, published 2016)
